Experimental data from ChEMBL document CHEMBL1201862, “PubChem BioAssay data set” (2004).
Counter-ions that a name gives are not always drawn.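 Protocol summary: plate cells (96-well), add compound at 5 concentrations, incubate 48 h, interpolate endpoints linearly. GI50: concentration for 50% inhibition of growth.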 Calls of active or inactive are those of the source. Rule as the data show it: active = GI50 up to about 1.1 µM and inactive = higher.

Key:
Assay in all cases: NCI anticancer screen, dose series, 48 h
BT-549 = test system: BT-549
CCRF-CEM = test system: CCRF-CEM
COLO 205 = test system: COLO 205
HL-60 = test system: HL-60
HT-29 = test system: HT-29
IGROV-1 = test system: IGROV-1
K562 = test system: K562
M14 = test system: M14
MCF7 = test system: MCF7
Malme-3M = test system: Malme-3M
NCI-H23 = test system: NCI-H23
NCI-H460 = test system: NCI-H460
OVCAR-4 = test system: OVCAR-4
PC-3 = test system: PC-3
RXF 393 = test system: RXF 393
SF-539 = test system: SF-539
U-251 = test system: U-251
Hs-578T = test system: Hs-578T
SF-268 = test system: SF-268
SR = test system: SR

SMILES	GI50 (BT-549)	GI50 (CCRF-CEM)	GI50 (COLO 205)	GI50 (HL-60)	GI50 (HT-29)	GI50 (IGROV-1)	GI50 (K562)	GI50 (M14)	GI50 (MCF7)	GI50 (Malme-3M)	GI50 (NCI-H23)	GI50 (NCI-H460)	GI50 (OVCAR-4)	GI50 (PC-3)	GI50 (RXF 393)	GI50 (SF-539)	GI50 (U-251)	GI50 (Hs-578T)	GI50 (SF-268)	GI50 (SR)
CC(=O)OCc1cc(=O)n2c([nH]c3ccccc32)c1C#N	> 100 µM (inactive)	19.3 µM (inactive)	53.3 µM (inactive)	42.3 µM (inactive)	79.4 µM (inactive)	55 µM (inactive)	65.9 µM (inactive)	61.8 µM (inactive)	> 100 µM (inactive)	89.1 µM (inactive)	> 100 µM (inactive)	18.6 µM (inactive)	1.63 µM (inactive)	40.6 µM (inactive)	59.3 µM (inactive)	> 100 µM (inactive)	34 µM (inactive)			
CC1=NN(c2cccc(Cl)c2)C2(C1=Cc1ccccc1)C(Cl)C(=O)N2c1nc2ccccc2s1 (stereo not given)		22.1 µM (inactive)		22.1 µM (inactive)	19.8 µM (inactive)	15.1 µM (inactive)	19.1 µM (inactive)	20.4 µM (inactive)	22.2 µM (inactive)		14.5 µM (inactive)	15.2 µM (inactive)	19.1 µM (inactive)	16.8 µM (inactive)	14 µM (inactive)	33.2 µM (inactive)	14.1 µM (inactive)	23.2 µM (inactive)	23.2 µM (inactive)	24.2 µM (inactive)
OC(c1ccsc1)c1cc2ccccc2s1 (stereo not given)		> 10 µM (inactive)	> 10 µM (inactive)	> 10 µM (inactive)	> 10 µM (inactive)	> 10 µM (inactive)	> 10 µM (inactive)	> 10 µM (inactive)	> 10 µM (inactive)		> 10 µM (inactive)	> 10 µM (inactive)	> 10 µM (inactive)	> 10 µM (inactive)	> 10 µM (inactive)	> 10 µM (inactive)	> 10 µM (inactive)	> 10 µM (inactive)	> 10 µM (inactive)	> 10 µM (inactive)
CCOC(=O)CCC(NC(=O)c1ccc(Oc2nc3ccc(C(F)(F)F)cc3nc2-c2ccccc2)cc1)C(=O)OCC (stereo not given)		> 100 µM (inactive)	> 100 µM (inactive)	> 100 µM (inactive)	5.15 µM (inactive)	22.7 µM (inactive)	> 100 µM (inactive)	67.6 µM (inactive)	> 41.5 µM (inactive)	14.2 µM (inactive)	16.8 µM (inactive)	47.1 µM (inactive)	6.22 µM (inactive)	> 58.3 µM (inactive)	15.7 µM (inactive)	3.01 µM (inactive)	20.4 µM (inactive)	3.33 µM (inactive)	6.55 µM (inactive)	> 100 µM (inactive)
O=C(O)c1ccccc1SCc1cccc2c(=O)c3ccc(Cl)cc3oc12	48.8 µM (inactive)	> 50 µM (inactive)	> 50 µM (inactive)	11 µM (inactive)	> 50 µM (inactive)	49.5 µM (inactive)	27.7 µM (inactive)	> 50 µM (inactive)	> 50 µM (inactive)	10.7 µM (inactive)	35.3 µM (inactive)		41.5 µM (inactive)	26.8 µM (inactive)		19.5 µM (inactive)	17.5 µM (inactive)			39 µM (inactive)
CSc1nc2c(=O)n(-c3ccccc3)c(=S)n(-c3ccccc3)c2s1		> 100 µM (inactive)	> 100 µM (inactive)	> 100 µM (inactive)	> 100 µM (inactive)	> 100 µM (inactive)	> 100 µM (inactive)	70 µM (inactive)	> 100 µM (inactive)	64.1 µM (inactive)	> 100 µM (inactive)	> 100 µM (inactive)	71.4 µM (inactive)	> 100 µM (inactive)	34.4 µM (inactive)	39.9 µM (inactive)	38.5 µM (inactive)	29.2 µM (inactive)	65 µM (inactive)	> 100 µM (inactive)
COC(=O)N1CC(=O)C(C(=O)NC23CC4CC(CC(C4)C2)C3)C1 (stereo not given)	66.7 µM (inactive)	42.5 µM (inactive)	62.1 µM (inactive)	32.1 µM (inactive)	78.9 µM (inactive)	> 100 µM (inactive)	55.2 µM (inactive)	> 100 µM (inactive)	45.3 µM (inactive)	78.7 µM (inactive)	> 100 µM (inactive)	78.7 µM (inactive)	> 100 µM (inactive)	52 µM (inactive)	82 µM (inactive)	72.9 µM (inactive)	67.3 µM (inactive)		37.7 µM (inactive)	48.3 µM (inactive)
CC1CC/C(=C\c2ccc(N(C)C)cc2)C(=O)/C1=C/c1ccc(N(C)C)cc1 (stereo not given)	> 100 µM (inactive)	> 100 µM (inactive)	> 100 µM (inactive)		> 100 µM (inactive)	> 100 µM (inactive)	> 100 µM (inactive)	> 100 µM (inactive)	> 100 µM (inactive)	0.228 µM (active)	> 100 µM (inactive)		> 100 µM (inactive)	> 100 µM (inactive)		> 100 µM (inactive)	> 100 µM (inactive)			> 100 µM (inactive)
C=CCOC(=O)CC[N+]1=CCC(c2ccccc2)(c2ccccc2)O1	> 100 µM (inactive)		> 100 µM (inactive)		> 100 µM (inactive)	> 100 µM (inactive)	> 100 µM (inactive)	> 100 µM (inactive)	> 100 µM (inactive)		> 100 µM (inactive)	> 100 µM (inactive)	> 100 µM (inactive)	> 100 µM (inactive)	> 100 µM (inactive)	> 100 µM (inactive)	> 100 µM (inactive)	> 100 µM (inactive)	> 100 µM (inactive)	
O=C(O)C1CCCCN1CCc1c[nH]c2ccccc12 (stereo not given)	> 100 µM (inactive)	> 100 µM (inactive)	> 100 µM (inactive)	> 100 µM (inactive)	> 100 µM (inactive)	> 100 µM (inactive)	> 100 µM (inactive)	> 100 µM (inactive)	> 100 µM (inactive)	> 100 µM (inactive)	> 100 µM (inactive)	> 100 µM (inactive)	> 100 µM (inactive)	> 100 µM (inactive)	> 100 µM (inactive)	> 100 µM (inactive)	> 100 µM (inactive)		> 100 µM (inactive)	
CCOC(=O)CCCSCCCC(=O)CCCSCCCC(=O)OCC	> 100 µM (inactive)	> 100 µM (inactive)	> 100 µM (inactive)	> 100 µM (inactive)	> 100 µM (inactive)	> 100 µM (inactive)	> 100 µM (inactive)	> 100 µM (inactive)	> 100 µM (inactive)		> 100 µM (inactive)	> 100 µM (inactive)	> 100 µM (inactive)	> 100 µM (inactive)		> 100 µM (inactive)	> 100 µM (inactive)		> 100 µM (inactive)	> 100 µM (inactive)
Cc1[nH]n(-c2nc3c(c(=O)[nH]2)CCC3)c(=O)c1CCO		> 100 µM (inactive)	> 100 µM (inactive)	> 100 µM (inactive)	> 100 µM (inactive)	> 100 µM (inactive)	> 100 µM (inactive)	> 100 µM (inactive)	> 100 µM (inactive)	> 100 µM (inactive)	> 100 µM (inactive)	> 100 µM (inactive)	> 100 µM (inactive)	> 100 µM (inactive)	> 100 µM (inactive)	> 100 µM (inactive)	> 100 µM (inactive)	> 100 µM (inactive)	> 100 µM (inactive)	
O=C(/C=C/c1ccccc1)Oc1ccc(C(=O)/C=C/c2ccc(Cl)cc2)cc1	25.8 µM (inactive)	17.4 µM (inactive)	> 100 µM (inactive)	71.1 µM (inactive)	> 100 µM (inactive)	> 100 µM (inactive)	87.3 µM (inactive)	> 100 µM (inactive)	36.4 µM (inactive)	> 100 µM (inactive)		15.8 µM (inactive)		59.7 µM (inactive)	97.3 µM (inactive)	28 µM (inactive)	20.7 µM (inactive)		82.2 µM (inactive)	3.23 µM (inactive)
CC(C)C[C@H](NC(=O)[C@H](Cc1ccccc1)NC(=O)c1cnccn1)B(O)O [BORTEZOMIB]	< 0.01 µM (active)		< 0.01 µM (active)	< 0.01 µM (active)	< 0.01 µM (active)	< 0.01 µM (active)	< 0.01 µM (active)	< 0.01 µM (active)	< 0.01 µM (active)	< 0.01 µM (active)	< 0.01 µM (active)	< 0.01 µM (active)	< 0.01 µM (active)	< 0.01 µM (active)	< 0.01 µM (active)	< 0.01 µM (active)	< 0.01 µM (active)		< 0.01 µM (active)	< 0.01 µM (active)
C=C1C[C@@H]2CC[C@@]34C[C@H]5O[C@H]6[C@@H](O3)[C@H]3O[C@H](CC[C@@H]3O[C@H]6[C@H]5O4)CC(=O)C[C@@H]3[C@@H](OC)[C@@H](C[C@H](O)CN)O[C@H]3C[C@H]3O[C@@H](CC[C@@H]1O2)C[C@@H](C)C3=C [ERIBULIN MESYLATE]	0.00703 µM (active)		0.00031 µM (active)		0.000352 µM (active)	0.00151 µM (active)	0.000916 µM (active)	0.00309 µM (active)	0.000383 µM (active)	0.00366 µM (active)	0.00109 µM (active)	0.00172 µM (active)	0.00319 µM (active)	0.00037 µM (active)		0.000465 µM (active)	0.00134 µM (active)	0.0022 µM (active)	0.00267 µM (active)	
